Assay results as given in paper PMC6368365, “Didehydro-Cortistatin A Inhibits HIV-1 by Specifically Binding to the Unstructured Basic Region of Tat” (mBio, 2019).

Assays:
[1] = in vivo; cited from earlier work
FLAG-Tat = target: T1, FLAG-Tat (Human immunodeficiency virus type 1 group M subtype B, UniProt P69697); test: Confocal immunofluorescence of FLAG-Tat subcellular localization; assay type: cell-based, HIV-1; details: 100 nM dCA, HeLa-CD4-LTR-Luc cells
T1 construct: expressed in transfected cells; host or cells: HeLa-CD4-LTR-Luc
Description: If dCA were to bind the basic domain of Tat in its disordered form, then one would predict it might also bind to other basic peptide sequences and block their functions. The two well-known proteins that share a similar basic domain with Tat are HIV-1 Rev protein and the cellular protein Hexim-1 (Fig. 3A). As such, we investigated whether dCA could inhibit these similar basic domain functions. The basic domain of Rev is responsible for its nuclear localization ([31]); therefore, we assessed whether dCA could impact the subcellular localization of Rev (Fig. 3B) as previously shown for Tat ([10]). We transfected HeLa-CD4-LTR-Luc cells with a plasmid expressing FLAG-tagged Rev and assessed Rev localization in the presence of 100 nM dCA. […] Twenty-four hours later, cells were collected, and total, nuclear, and cytoplasmic mRNAs were extracted, reverse transcribed, and quantified by quantitative real-time PCR (qRT-PCR).
(A) Sequence of the basic domains of HIV Tat HXB3, HIV Rev Bru and intracellular Hexim-1. […] (C) Quantification of the nucleolar fluorescence of panel B using ImageJ. […] Total, nuclear, and cytoplasmic mRNAs were extracted, and viral messages were determined by qRT-PCR. […] (G) Quantification of nuclear fluorescence of panel F using ImageJ. […] Statistical significance was determined using one-way ANOVA with post hoc Tukey’s test. ns, not significant; ***, P < 0.0001; **, P < 0.001. […]

HIV-1 TAR = test: ITC of dCA binding to TAR; details: 25°C
Description: FIG 6 dCA binding to Tat disrupts Tat-TAR interaction. (A) EMSA of full-length Tat with TAR in the presence of dCA. Raltegravir (Ralt.) and deleted bulge TAR (ΔTAR) were used as negative controls. Data are representative of n = 3 independent experiments. (B) EMSA of Tat’s basic domain with TAR in the presence of increasing concentrations of dCA to Tat’s basic peptide. Pep B is a peptide encompassing the basic domain of HIV Tat (^45ISYGRKKRRQRRRAP^59). Pep C (^69LSKQPASQPRGDPTG^83) and unlabeled or cold TAR (TARc) were used as negative controls. Neomycin, which binds to Tat and TAR, was used as a positive control. Ratios of compounds (or TARc) concentrations to peptide are shown. Data are representative of n = 3 independent experiments. […] Shown are ITC results from binding of dCA (left) or Tat peptide (right) to TAR at 25°C. […] Luciferase activity was determined relative to protein concentration (Bradford assay) (Fig. S9A). […] Statistical significance was determined using one-way ANOVA with post hoc Tukey’s test with 3 technical replicates. ns, not significant; ***, P < 0.0001. […]
Isothermal titration calorimetry. […] Each injection generated a heat burst curve (microcalories/second vs. seconds) and the area under each curve was determined by integration [using the origin version 7.0 software (Microcal, Inc.; Northampton, MA)] to obtain the measure of the heat associated with that injection.

T1 sequence (P69697 whole entry): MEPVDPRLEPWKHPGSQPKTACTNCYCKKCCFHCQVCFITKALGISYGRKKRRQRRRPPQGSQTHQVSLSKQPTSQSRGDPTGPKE

In the case of `CN(C)C1CC23CCC4(O2)C(=CCC2(C)C(c5ccc6ccncc6c5)=CCC24)C=C3C(O)C1O` (stereo not drawn) [dCA, didehydro-cortistatin A], the “penetration of viral sanctuaries” value [1] is listed as “penetrates viral sanctuaries such as the brain”, the “subcellular localization of Tat” value (FLAG-Tat) is listed as “significant redistribution of Tat to the periphery of the nucleolus” and the “binding to TAR (ITC)” value (HIV-1 TAR) is listed as “does not bind to TAR”.
